Measured values from patent US11759462B2, “Spirocyclic compounds as tryptophan hydroxylase inhibitors” (priority 2013, dated 2023).
Several values for one entry are separate records, joined by “and”; a condition that tells them apart may be missing. Equal entries are not always repeated.

Molecular target: T1, Recombinant human TPH1 (MBP tagged) (Homo sapiens, UniProt P17752)
T1 construct: cloning full length human TPH1 cDNA in to a bacterial pMAL-c5E expression vector; made in house; host or cells: E. coli BL21 (DE3)
T1 sequence (P17752 1-444): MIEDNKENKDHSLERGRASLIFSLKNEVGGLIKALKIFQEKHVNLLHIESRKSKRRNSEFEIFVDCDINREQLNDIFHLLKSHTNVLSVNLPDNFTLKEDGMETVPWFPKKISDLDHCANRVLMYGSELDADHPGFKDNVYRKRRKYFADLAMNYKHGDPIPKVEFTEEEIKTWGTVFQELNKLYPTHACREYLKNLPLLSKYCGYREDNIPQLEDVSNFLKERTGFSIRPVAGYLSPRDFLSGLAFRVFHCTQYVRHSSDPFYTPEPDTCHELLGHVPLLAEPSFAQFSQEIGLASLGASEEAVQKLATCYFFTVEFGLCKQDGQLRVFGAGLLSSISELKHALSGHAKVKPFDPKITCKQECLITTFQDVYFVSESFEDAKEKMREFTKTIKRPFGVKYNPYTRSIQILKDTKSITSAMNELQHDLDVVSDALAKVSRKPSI
Assay: TPH1 in vitro inhibition assay (kinetic fluorescence)
Type: biochemical
Settings: read-out: TPH1 Range (TPH1 inhibition IC50)
Source text: Recombinant human TPH1 (rTPH1 GenBank™ accession no. NP_004179) was expressed by cloning full length human TPH1 cDNA in to a bacterial pMAL-c5E expression vector to produce maltose-binding protein (MBP) TPH1 fusion proteins. E. coli BL21 (DE3) containing pMAL-c5E-TPH1 was used for protein generation and the recombinant protein was purified utilizing standard column chromatography techniques. The MBP tagged TPH1 (MBP-TPH1) was used directly to screen compounds as described below. Recombinant human TPH2 (rTPH2 GenBank™ accession no. 173353), PheOH (rPheOH GenBank™ accession no. K03020) and TH (rTH GenBank™ accession no. L20679) with an MBP tag were produced similarly.
TPH1 activities were measured in an assay containing 200 mM ammonium sulfate, 7 mM DTT, 50 μg/mL catalase, 25 μM ammonium iron sulfate, 50 mM MES, pH 7.1. Test compounds were diluted in 100% DMSO and added to the assay plate in 1 μL aliquots at 100× final concentration. Fifty microliters of assay buffer containing 30 nM TPH1 enzyme (MBP tagged) were added to the plate wells containing the test compound by the use of an Eppendorf repeater pipette. The reaction was initiated by the addition of 50 μL of assay buffer containing 60 μM tryptophan and 72 μM 6-6-methyltetra-hydropterin (2× final concentration) by the use of a Multidrop (LabSystems). Final reaction conditions were 15 nM TPH1 enzyme, 30 μM tryptophan, 36 μM 6-methyltetra-hydropterin, 200 mM ammonium sulfate, 7 mM DTT, […], 25 μM ferrous ammonium sulfate, 50 mM MES, pH 7.1, with atmospheric oxygen at room temperature. The plate was immediately placed onto an M5 plate reader (Molecular Devices) for kinetic fluorescence measurement using an excitation setting of 300 nm and an emission setting of 335 nm. Fluorescence reads are recorded in kinetic mode for 300 seconds (5 minutes).
Kinetic assay data for compounds at specific concentrations was translated into slopes using the Softmax Pro software on a Spectramax reader, and compound inhibition slopes were compared with wells containing enzyme, substrate and cofactor in the absence of inhibitor (100%), and wells containing substrate and cofactor in the absence of enzyme (0%). DMSO concentration in the assay was 1%. […] IC50's were determined using Graphpad Prism.

IC50, < 50 nM:
Cc1ccn(-c2cc(-c3cccc(OC(F)(F)F)c3)ccc2[C@@H](Oc2cc(N3CCC4(CC3)CN[C@H](C(=O)O)C4)nc(N)n2)C(F)(F)F)n1 [Example 1as, (S)-8-(2-amino-6-((R)-2,2,2-trifluoro-1-(3-(3-methyl-1H-pyrazol-1-yl)-3'-(trifluoromethoxy)-[1,1′-biphenyl]-4-yl)ethoxy)pyrimidin-4-yl)-2,8-diazaspiro[4.5]decane-3-carboxylic acid]
Cc1cc(C)cc(-c2ccc([C@@H](Oc3cc(N4CCC5(CC4)CN[C@H](C(=O)O)C5)nc(N)n3)C(F)(F)F)c(-n3ccc(C)n3)c2)c1 [Example 1at, (S)-8-(2-amino-6-((R)-1-(3′,5′-dimethyl-3-(3-methyl-1H-pyrazol-1-yl)-[1,1′-biphenyl]-4-yl)-2,2,2-trifluoroethoxy)pyrimidin-4-yl)-2,8-diazaspiro[4.5]decane-3-carboxylic acid]
Cc1ccn(-c2cc(-c3ccc(OC(C)C)c(F)c3)ccc2[C@@H](Oc2cc(N3CCC4(CC3)CN[C@H](C(=O)O)C4)nc(N)n2)C(F)(F)F)n1 [Example 1ax, (S)-8-(2-amino-6-((R)-2,2,2-trifluoro-1-(3′-fluoro-4′-isopropoxy-3-(3-methyl-1H-pyrazol-1-yl)-[1,1′-biphenyl]-4-yl)ethoxy)pyrimidin-4-yl)-2,8-diazaspiro[4.5]decane-3-carboxylic acid]
CSc1ccc(-c2ccc([C@@H](Oc3cc(N4CCC5(CC4)CN[C@H](C(=O)O)C5)nc(N)n3)C(F)(F)F)c(-n3ccc(C)n3)c2)cc1 [Example 1b, (S)-8-(2-amino-6-((R)-2,2,2-trifluoro-1-(3-(3-methyl-1H-pyrazol-1-yl)-4′-(methylthio)-[1,1′-biphenyl]-4-yl)ethoxy)pyrimidin-4-yl)-2,8-diazaspiro[4.5]decane-3-carboxylic acid]
Cc1ccn(-c2cc(-c3ccc(F)c(C)c3)ccc2[C@@H](Oc2cc(N3CCC4(CC3)CN[C@H](C(=O)O)C4)nc(N)n2)C(F)(F)F)n1 [Example 1ba, (S)-8-(2-amino-6-((R)-2,2,2-trifluoro-1-(4′-fluoro-3′-methyl-3-(3-methyl-1H-pyrazol-1-yl)-[1,1′-biphenyl]-4-yl)ethoxy)pyrimidin-4-yl)-2,8-diazaspiro[4.5]decane-3-carboxylic acid]
Cc1ccn(-c2cc(-c3cccc(C(C)C)c3)ccc2[C@@H](Oc2cc(N3CCC4(CC3)CN[C@H](C(=O)O)C4)nc(N)n2)C(F)(F)F)n1 [Example 1bb, (S)-8-(2-amino-6-((R)-2,2,2-trifluoro-1-(3′-isopropyl-3-(3-methyl-1H-pyrazol-1-yl)-[1,1′-biphenyl]-4-yl)ethoxy)pyrimidin-4-yl)-2,8-diazaspiro[4.5]decane-3-carboxylic acid]
Cc1ccn(-c2cc(-c3cccc(OC(C)C)c3)ccc2[C@@H](Oc2cc(N3CCC4(CC3)CN[C@H](C(=O)O)C4)nc(N)n2)C(F)(F)F)n1 [Example 1bc, (S)-8-(2-amino-6-((R)-2,2,2-trifluoro-1-(3′-isopropoxy-3-(3-methyl-1H-pyrazol-1-yl)-[1,1′-biphenyl]-4-yl)ethoxy)pyrimidin-4-yl)-2,8-diazaspiro[4.5]decane-3-carboxylic acid]
Cc1ccn(-c2cc(-c3ccc(Cl)c(C)c3)ccc2[C@@H](Oc2cc(N3CCC4(CC3)CN[C@H](C(=O)O)C4)nc(N)n2)C(F)(F)F)n1 [Example 1bd, (S)-8-(2-amino-6-((R)-1-(4′-chloro-3′-methyl-3-(3-methyl-1H-pyrazol-1-yl)-[1,1′-biphenyl]-4-yl)-2,2,2-trifluoroethoxy)pyrimidin-4-yl)-2,8-diazaspiro[4.5]decane-3-carboxylic acid]
CCOc1cc(-c2ccc([C@@H](Oc3cc(N4CCC5(CC4)CN[C@H](C(=O)O)C5)nc(N)n3)C(F)(F)F)c(-n3ccc(C)n3)c2)ccc1F [Example 1bg, (S)-8-(2-amino-6-((R)-1-(3′-ethoxy-4′-fluoro-3-(3-methyl-1H-pyrazol-1-yl)-[1,1′-biphenyl]-4-yl)-2,2,2-trifluoroethoxy)pyrimidin-4-yl)-2,8-diazaspiro[4.5]decane-3-carboxylic acid]
Cc1ccn(-c2cc(-c3cc(C)c(Cl)c(C)c3)ccc2[C@@H](Oc2cc(N3CCC4(CC3)CN[C@H](C(=O)O)C4)nc(N)n2)C(F)(F)F)n1 [Example 1bh, (S)-8-(2-amino-6-((R)-1-(4′-chloro-3′,5′-dimethyl-3-(3-methyl-1H-pyrazol-1-yl)-[1,1′-biphenyl]-4-yl)-2,2,2-trifluoroethoxy)pyrimidin-4-yl)-2,8-diazaspiro[4.5]decane-3-carboxylic acid]
Cc1ccn(-c2cc(-c3cc(Cl)cc(Cl)c3)ccc2[C@@H](Oc2cc(N3CCC4(CC3)CN[C@H](C(=O)O)C4)nc(N)n2)C(F)(F)F)n1 [Example 1bi, (S)-8-(2-amino-6-((R)-1-(3′,5′-dichloro-3-(3-methyl-1H-pyrazol-1-yl)-[1,1′-biphenyl]-4-yl)-2,2,2-trifluoroethoxy)pyrimidin-4-yl)-2,8-diazaspiro[4.5]decane-3-carboxylic acid]

IC50, 50 to 300 nM:
Cc1ccn(-c2cc(-c3ccc(F)c(F)c3)ccc2[C@@H](Oc2cc(N3CCC4(CC3)CN[C@H](C(=O)O)C4)nc(N)n2)C(F)(F)F)n1 [Example 1au, (S)-8-(2-amino-6-((R)-1-(3′,4′-difluoro-3-(3-methyl-1H-pyrazol-1-yl)-[1,1′-biphenyl]-4-yl)-2,2,2-trifluoroethoxy)pyrimidin-4-yl)-2,8-diazaspiro[4.5]decane-3-carboxylic acid]
Cc1ccn(-c2cc(-c3ccc(F)c(C(F)(F)F)c3)ccc2[C@@H](Oc2cc(N3CCC4(CC3)CN[C@H](C(=O)O)C4)nc(N)n2)C(F)(F)F)n1 [Example 1aw, (S)-8-(2-amino-6-((R)-2,2,2-trifluoro-1-(4′-fluoro-3-(3-methyl-1H-pyrazol-1-yl)-3′-(trifluoromethyl)-[1,1′-biphenyl]-4-yl)ethoxy)pyrimidin-4-yl)-2,8-diazaspiro[4.5]decane-3-carboxylic acid]
Cc1ccn(-c2cc(-c3cccc(C(C)(C)C)c3)ccc2[C@@H](Oc2cc(N3CCC4(CC3)CN[C@H](C(=O)O)C4)nc(N)n2)C(F)(F)F)n1 [Example 1az, (S)-8-(2-amino-6-((R)-1-(3′-(tert-butyl)-3-(3-methyl-1H-pyrazol-1-yl)-[1,1′-biphenyl]-4-yl)-2,2,2-trifluoroethoxy)pyrimidin-4-yl)-2,8-diazaspiro[4.5]decane-3-carboxylic acid]
Cc1ccn(-c2cc(-c3cccc(C(N)=O)c3)ccc2[C@@H](Oc2cc(N3CCC4(CC3)CN[C@H](C(=O)O)C4)nc(N)n2)C(F)(F)F)n1 [Example 1be, (S)-8-(2-amino-6-((R)-1-(3′-carbamoyl-3-(3-methyl-1H-pyrazol-1-yl)-[1,1′-biphenyl]-4-yl)-2,2,2-trifluoroethoxy)pyrimidin-4-yl)-2,8-diazaspiro[4.5]decane-3-carboxylic acid]
Cc1ccn(-c2cc(-c3cc(C(F)(F)F)cc(C(F)(F)F)c3)ccc2[C@@H](Oc2cc(N3CCC4(CC3)CN[C@H](C(=O)O)C4)nc(N)n2)C(F)(F)F)n1 [Example 1bf, (S)-8-(2-amino-6-((R)-2,2,2-trifluoro-1-(3-(3-methyl-1H-pyrazol-1-yl)-3′,5′-bis(trifluoromethyl)-[1,1′-biphenyl]-4-yl)ethoxy)pyrimidin-4-yl)-2,8-diazaspiro[4.5]decane-3-carboxylic acid]

IC50, < 50 nM and 50 to 300 nM:
CCOc1cc(F)cc(-c2ccc([C@@H](Oc3cc(N4CCC5(CC4)CN[C@H](C(=O)O)C5)nc(N)n3)C(F)(F)F)c(-n3ccc(C)n3)c2)c1 [Example 1ay, (S)-8-(2-amino-6-((R)-1-(3′-ethoxy-5′-fluoro-3-(3-methyl-1H-pyrazol-1-yl)-[1,1′-biphenyl]-4-yl)-2,2,2-trifluoroethoxy)pyrimidin-4-yl)-2,8-diazaspiro[4.5]decane-3-carboxylic acid]
